Test results reported in PubChem BioAssay AID220 (DTP/NCI, 2004).
“And” between values parts separate entries of the source, which are not always exact repeats. Identical values can stand only once. Results filed as inconclusive are left out.

System: CD8F1 mice, subcutaneous mammary adenocarcinoma, T/C%
Test: NCI In Vivo Anticancer Drug Screen. Data for tumor model Mammary Adenocarcinoma CD8F1 (subcutaneous) in CD8F1
Details: higher = larger tumour
Outline: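 Tumor-bearing mice, transplantable model; readout survival or tumor size; value = treated (T) / vehicle control (C).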

[1] = endpoint: median tumor weight (est.), dose: 6.25 mg/kg/injection, schedule: Q07DX005 (ip), vehicle: Klucel (hydroxypropylcellulose) (HPC)
[2] = endpoint: median tumor weight (est.), dose: 12.5 mg/kg/injection, schedule: Q07DX005 (ip), vehicle: Klucel (hydroxypropylcellulose) (HPC)
[3] = endpoint: median tumor weight (est.), dose: 6.25 mg/kg/injection, schedule: Q07DX005 (ip), vehicle: saline with Tween-80
[4] = endpoint: median tumor weight (est.), dose: 12.5 mg/kg/injection, schedule: Q07DX005 (ip), vehicle: saline with Tween-80
[5] = endpoint: median tumor weight change, dose: 250.0 mg/kg/injection, schedule: Q01DX001 (ip), vehicle: Klucel (hydroxypropylcellulose) (HPC)

What does the source list for `COc1cc(NS(C)(=O)=O)ccc1Nc1c2ccccc2nc2ccccc12`?
T/C (endpoint: mean tumor weight (est.), dose: 4.0 mg/kg/injection, schedule: Q07DX004 (ip), vehicle: saline): 158 % of control; T/C (endpoint: mean tumor weight (est.), dose: 8.0 mg/kg/injection, schedule: Q07DX004 (ip), vehicle: saline): 120 % of control; T/C (endpoint: mean tumor weight (est.), dose: 16.0 mg/kg/injection, schedule: Q07DX004 (ip), vehicle: saline): 109 % of control; T/C (endpoint: mean tumor weight (est.), dose: 32.0 mg/kg/injection, schedule: Q07DX004 (ip), vehicle: saline): 79 % of control; T/C (endpoint: mean tumor weight, dose: 2.0 mg/kg/injection, schedule: Q05DX005 (ip), vehicle: saline): 66 % of control; T/C (endpoint: mean tumor weight, dose: 4.0 mg/kg/injection, schedule: Q05DX005 (ip), vehicle: saline): 82 % of control; T/C (endpoint: mean tumor weight, dose: 4.0 mg/kg/injection, schedule: Q07DX004 (ip), vehicle: saline): 51 % of control; T/C (endpoint: mean tumor weight, dose: 8.0 mg/kg/injection, schedule: Q05DX005 (ip), vehicle: saline): 62 % of control; T/C (endpoint: mean tumor weight, dose: 8.0 mg/kg/injection, schedule: Q07DX004 (ip), vehicle: saline): 28 % of control; T/C (endpoint: mean tumor weight, dose: 16.0 mg/kg/injection, schedule: Q05DX005 (ip), vehicle: saline): 39 % of control; T/C (endpoint: mean tumor weight, dose: 16.0 mg/kg/injection, schedule: Q07DX004 (ip), vehicle: saline): 23 % of control; T/C (endpoint: mean tumor weight, dose: 32.0 mg/kg/injection, schedule: Q07DX004 (ip), vehicle: saline): 18 % of control; T/C (endpoint: median tumor weight (est.), dose: 1.0 mg/kg/injection, schedule: Q01DX005 (ip), vehicle: Klucel (hydroxypropylcellulose) (HPC)): 73 % of control; T/C (endpoint: median tumor weight (est.), dose: 2.0 mg/kg/injection, schedule: Q01DX005 (ip), vehicle: Klucel (hydroxypropylcellulose) (HPC)): 94 % of control; T/C (endpoint: median tumor weight (est.), dose: 2.0 mg/kg/injection, schedule: Q07DX005 (ip), vehicle: Klucel (hydroxypropylcellulose) (HPC)): 195 % of control; T/C (endpoint: median tumor weight (est.), dose: 4.0 mg/kg/injection, schedule: Q01DX005 (ip), vehicle: Klucel (hydroxypropylcellulose) (HPC)): 80 % of control; T/C (endpoint: median tumor weight (est.), dose: 4.0 mg/kg/injection, schedule: Q04DX005 (ip), vehicle: Klucel (hydroxypropylcellulose) (HPC)): 119 % of control; T/C (endpoint: median tumor weight (est.), dose: 4.0 mg/kg/injection, schedule: Q07DX005 (ip), vehicle: Klucel (hydroxypropylcellulose) (HPC)): 42 % of control and 65 % of control; T/C (endpoint: median tumor weight (est.), dose: 8.0 mg/kg/injection, schedule: Q01DX005 (ip), vehicle: Klucel (hydroxypropylcellulose) (HPC)): 59 % of control; T/C (endpoint: median tumor weight (est.), dose: 8.0 mg/kg/injection, schedule: Q04DX005 (ip), vehicle: Klucel (hydroxypropylcellulose) (HPC)): 35 % of control; T/C (endpoint: median tumor weight (est.), dose: 16.0 mg/kg/injection, schedule: Q01DX001 (ip), vehicle: Klucel (hydroxypropylcellulose) (HPC)): 93 % of control; T/C (endpoint: median tumor weight (est.), dose: 16.0 mg/kg/injection, schedule: Q01DX005 (ip), vehicle: Klucel (hydroxypropylcellulose) (HPC)): 38 % of control; T/C (endpoint: median tumor weight (est.), dose: 16.0 mg/kg/injection, schedule: Q04DX005 (ip), vehicle: Klucel (hydroxypropylcellulose) (HPC)): 17 % of control; T/C (endpoint: median tumor weight (est.), dose: 32.0 mg/kg/injection, schedule: Q01DX001 (ip), vehicle: Klucel (hydroxypropylcellulose) (HPC)): 35 % of control; T/C (endpoint: median tumor weight (est.), dose: 32.0 mg/kg/injection, schedule: Q07DX005 (ip), vehicle: Klucel (hydroxypropylcellulose) (HPC)): 3 % of control and 10 % of control; T/C (endpoint: median tumor weight (est.), dose: 64.0 mg/kg/injection, schedule: Q01DX001 (ip), vehicle: Klucel (hydroxypropylcellulose) (HPC)): 39 % of control

What does the source list for `C=CS(C=C)=NS(=O)(=O)c1ccc(C)cc1`?
T/C (endpoint: median tumor weight (est.), dose: 3.12 mg/kg/injection, schedule: Q07DX005 (ip), vehicle: Klucel (hydroxypropylcellulose) (HPC)): 94 % of control; T/C [1]: 101 % of control; T/C [2]: 89 % of control

Which results are given for `C=CCNc1ccc(C)cc1`?
T/C [1]: 73 % of control; T/C [2]: 77 % of control; T/C (endpoint: median tumor weight (est.), dose: 25.0 mg/kg/injection, schedule: Q07DX005 (ip), vehicle: Klucel (hydroxypropylcellulose) (HPC)): 80 % of control; T/C (endpoint: median tumor weight (est.), dose: 50.0 mg/kg/injection, schedule: Q07DX005 (ip), vehicle: Klucel (hydroxypropylcellulose) (HPC)): 57 % of control; T/C (endpoint: median tumor weight (est.), dose: 100.0 mg/kg/injection, schedule: Q07DX005 (ip), vehicle: Klucel (hydroxypropylcellulose) (HPC)): 88 % of control; T/C (endpoint: median tumor weight (est.), dose: 200.0 mg/kg/injection, schedule: Q07DX005 (ip), vehicle: Klucel (hydroxypropylcellulose) (HPC)): 62 % of control

With `COc1cc2cc3cc4cc(OC)c(OC)cc4c(C)[n+]3cc2cc1OC` (tested in a mixture with another compound) as the compound, how does the T/C (endpoint: median tumor weight (est.), dose: 12.5 mg/kg/injection, schedule: Q07DX005 (ip), vehicle: saline) read?
Its T/C is 68 % of control.

What about the T/C (endpoint: median tumor weight (est.), dose: 25.0 mg/kg/injection, schedule: Q07DX005 (ip), vehicle: saline) of the same compound?
The T/C was 88 % of control.

What about the T/C (endpoint: median tumor weight (est.), dose: 50.0 mg/kg/injection, schedule: Q07DX005 (ip), vehicle: saline) of the same compound?
The T/C was 82 % of control.

And the T/C (endpoint: median tumor weight (est.), dose: 100.0 mg/kg/injection, schedule: Q07DX005 (ip), vehicle: saline)?
The T/C was 90 % of control.

What about the T/C (endpoint: median tumor weight (est.), dose: 200.0 mg/kg/injection, schedule: Q07DX005 (ip), vehicle: saline) of the same compound?
The T/C was 39 % of control.

Which results are given for `C/C(=N/NC(N)=S)c1ccc2ccccc2c1`?
T/C (endpoint: median tumor weight (est.), dose: 3.12 mg/kg/injection, schedule: Q07DX005 (ip), vehicle: saline with Tween-80): 152 % of control; T/C [3]: 95 % of control and 100 % of control; T/C [4]: 69 % of control and 72 % of control

With `COc1ccc2c(NCCCCCCNc3c4ccccc4nc4cc(OC)ccc34)c3ccccc3nc2c1` as the compound, how does the T/C (endpoint: median tumor weight (est.), dose: 1.25 mg/kg/injection, schedule: Q07DX005 (ip), vehicle: lactic acid) read?
Its T/C is 77 % of control.

What about the T/C (endpoint: median tumor weight (est.), dose: 2.5 mg/kg/injection, schedule: Q07DX005 (ip), vehicle: lactic acid) of the same compound?
The T/C was 175 % of control.

And the T/C (endpoint: median tumor weight (est.), dose: 5.0 mg/kg/injection, schedule: Q07DX005 (ip), vehicle: lactic acid)?
The T/C was 52 % of control.

For `N=C(N)c1ccc(/C=C/c2ccc(C(=N)N)cc2O)cc1`, which T/C (endpoint: median tumor weight (est.), dose: 12.5 mg/kg/injection, schedule: Q07DX005 (ip), vehicle: water) is on record?
The T/C was 75 % of control and 76 % of control.

Which T/C (endpoint: median tumor weight change, dose: 37.5 mg/kg/injection, schedule: Q01DX001 (ip), vehicle: Klucel (hydroxypropylcellulose) (HPC)) does the source give for `C=C1C(=O)C2=CC1CCC(=O)C1(C)CCC(OC(C)=O)C(C)(C)C1CC2O` (stereo not drawn) here?
The T/C was 83 % of control.

And the T/C (endpoint: median tumor weight change, dose: 75.0 mg/kg/injection, schedule: Q01DX001 (ip), vehicle: Klucel (hydroxypropylcellulose) (HPC))?
Its T/C is 88 % of control.

What about the T/C (endpoint: median tumor weight change, dose: 150.0 mg/kg/injection, schedule: Q01DX001 (ip), vehicle: Klucel (hydroxypropylcellulose) (HPC)) of the same compound?
Its T/C is 30 % of control.

With `O=C1CC2(C(=O)N1CN1CCOCC1)c1ccccc1-c1ccccc12` as the compound, how does the T/C [5] read?
The T/C was 167 % of control.

What about the T/C (endpoint: median tumor weight change, dose: 500.0 mg/kg/injection, schedule: Q01DX001 (ip), vehicle: Klucel (hydroxypropylcellulose) (HPC)) of the same compound?
Its T/C is 102 % of control.

And the T/C (endpoint: median tumor weight change, dose: 1000.0 mg/kg/injection, schedule: Q01DX001 (ip), vehicle: Klucel (hydroxypropylcellulose) (HPC))?
The T/C was 40 % of control.

Which results are given for `O/N=C/c1ccccc1O.O/N=C/c1ccccc1O.[Cu]`?
T/C (endpoint: median tumor weight change, dose: 31.25 mg/kg/injection, schedule: Q01DX001 (ip), vehicle: saline with Tween-80): 90 % of control; T/C (endpoint: median tumor weight change, dose: 62.5 mg/kg/injection, schedule: Q01DX001 (ip), vehicle: saline with Tween-80): 59 % of control

Which T/C (endpoint: median tumor weight change, dose: 187.5 mg/kg/injection, schedule: Q01DX001 (ip), vehicle: saline with Tween-80) does the source give for `O=C(CCCCCCC(=O)ON1C(=O)CCC1=O)ON1C(=O)CCC1=O` here?
The T/C was 100 % of control.

And the T/C (endpoint: median tumor weight change, dose: 375.0 mg/kg/injection, schedule: Q01DX001 (ip), vehicle: saline with Tween-80)?
The T/C was 102 % of control.

What about the T/C (endpoint: median tumor weight change, dose: 750.0 mg/kg/injection, schedule: Q01DX001 (ip), vehicle: saline with Tween-80) of the same compound?
Its T/C is 51 % of control.

`CN(C)C(=O)c1cccc(COc2ccc(N3C(N)=NC(N)=NC3(C)C)cc2Cl)c1` was tested. Which T/C (endpoint: median tumor weight (est.), dose: 8.0 mg/kg/injection, schedule: Q07DX005 (ip), vehicle: suspension in saline) did it give?
Its T/C is 154 % of control.

What about the T/C (endpoint: median tumor weight (est.), dose: 16.0 mg/kg/injection, schedule: Q07DX005 (ip), vehicle: suspension in saline) of the same compound?
Its T/C is 57 % of control.

And the T/C (endpoint: median tumor weight (est.), dose: 32.0 mg/kg/injection, schedule: Q07DX005 (ip), vehicle: suspension in saline)?
Its T/C is 64 % of control.

Which results are given for `CC1=C(/C=C/C(C)=C/C=C/C(C)=C/CO)C(C)(C)CCC1`?
T/C (endpoint: median tumor weight (est.), dose: 8.0 mg/kg/injection, schedule: Q07DX005 (ip), vehicle: saline with Tween-80): 195 % of control; T/C (endpoint: median tumor weight (est.), dose: 32.0 mg/kg/injection, schedule: Q07DX005 (ip), vehicle: saline with Tween-80): 118 % of control

Which T/C [3] does the source give for `OC1CCCC2CCCNC12` (stereo not drawn) here?
The T/C was 206 % of control.

What about the T/C [4] of the same compound?
Its T/C is 102 % of control.

What about the T/C (endpoint: median tumor weight (est.), dose: 25.0 mg/kg/injection, schedule: Q07DX005 (ip), vehicle: saline with Tween-80) of the same compound?
Its T/C is 171 % of control.

And the T/C (endpoint: median tumor weight (est.), dose: 50.0 mg/kg/injection, schedule: Q07DX005 (ip), vehicle: saline with Tween-80)?
Its T/C is 73 % of control.

For `Nc1ncnc2nc[nH]c12`, which T/C (endpoint: median tumor weight (est.), dose: 64.0 mg/kg/injection, schedule: Q07DX005 (ip), vehicle: Klucel (hydroxypropylcellulose) (HPC)) is on record?
The T/C was 75 % of control and 77 % of control and 78 % of control.

What about the T/C (endpoint: median tumor weight (est.), dose: 512.0 mg/kg/injection, schedule: Q07DX005 (ip), vehicle: Klucel (hydroxypropylcellulose) (HPC)) of the same compound?
The T/C was 17 % of control and 31 % of control.

Which T/C (endpoint: median tumor weight change, dose: 31.25 mg/kg/injection, schedule: Q01DX001 (ip), vehicle: Klucel (hydroxypropylcellulose) (HPC)) does the source give for `Cc1cc(N/N=C/c2ccccn2)nc2ccccc12` here?
The T/C was 92 % of control.

What about the T/C (endpoint: median tumor weight change, dose: 62.5 mg/kg/injection, schedule: Q01DX001 (ip), vehicle: Klucel (hydroxypropylcellulose) (HPC)) of the same compound?
The T/C was 100 % of control.

And the T/C (endpoint: median tumor weight change, dose: 125.0 mg/kg/injection, schedule: Q01DX001 (ip), vehicle: Klucel (hydroxypropylcellulose) (HPC))?
The T/C was 96 % of control.

What about the T/C [5] of the same compound?
Its T/C is 59 % of control.
